Measured values taken from PMC11348465, “Pharmacochemical Study of Multitarget Amino Acids’ Hybrids: Design, Synthesis, In vitro, and In silico Studies” (Medicinal Chemistry (Shariqah (United Arab Emirates), 2024).
pIC50: −log10 of the molar value. Read-outs that look alike come from different tables or passages of the source. Values belong to the molecule of their own block, whether it stands above or below them.

Key:
[1] = molecular target: T1, ovine COX-2 (Ovis aries, UniProt P79208); test: Cyclooxygenase-2 inhibition study; format: biochemical; settings: for COX-2 inhibition (%): % inhibition at 100 µM
T1 construct: purchased Cayman (USA)
T1 sequence (P79208 17-603): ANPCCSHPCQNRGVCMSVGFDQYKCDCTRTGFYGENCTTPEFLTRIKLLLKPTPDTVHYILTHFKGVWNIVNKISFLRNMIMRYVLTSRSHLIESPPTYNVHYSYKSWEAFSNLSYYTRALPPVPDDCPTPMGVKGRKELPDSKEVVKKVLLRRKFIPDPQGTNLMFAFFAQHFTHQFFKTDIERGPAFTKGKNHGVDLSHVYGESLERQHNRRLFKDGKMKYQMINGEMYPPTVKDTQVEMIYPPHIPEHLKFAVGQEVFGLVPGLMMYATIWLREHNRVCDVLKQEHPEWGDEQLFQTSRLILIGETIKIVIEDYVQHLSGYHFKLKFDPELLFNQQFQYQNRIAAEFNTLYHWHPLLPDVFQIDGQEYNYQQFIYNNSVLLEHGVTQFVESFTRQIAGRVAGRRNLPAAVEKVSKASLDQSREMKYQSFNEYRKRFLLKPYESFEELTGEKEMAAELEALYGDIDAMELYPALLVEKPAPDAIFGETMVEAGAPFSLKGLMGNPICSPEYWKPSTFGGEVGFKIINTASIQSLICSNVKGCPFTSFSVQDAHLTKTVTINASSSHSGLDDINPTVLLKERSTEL
Method: The in vitro study of cyclooxygenase (COX) activity was determined by using arachidonic acid (AA) as the substrate and N,N,N’,N’-tetramethylphenylenediamine (TMPD) as the co-substrate. […] The absorption due to the spontaneous oxidation of TMPD was subtracted from the initial rate of oxidation observed in the presence of AA. […] A blank determination was used first to serve as a negative control. Indomethacin was used as a reference COX-2 inhibitor (positive control).
The role of COX-2 in neurodegenerative diseases has been reported, and COX-2 inhibition is considered of high importance as a therapeutic tool. The designed derivatives were tested for their COX-2 inhibition activity on the ovine COX-2 enzyme. […] Indomethacin was used as a reference compound.

[2] = Inhibition of linoleic acid peroxidation (AAPH-induced)
Method: Our group evaluated the in vitro study as reported previously. Ten 16 mM sodium linoleate solution microliters were added to the UV cuvette containing 93 µL of a 0.05 M phosphate buffer, pH 7.4, and 10 µL of the tested compounds (final concentration 100 µM). The oxidation reaction started at 37 °C under air by adding 50 µL of the free radical initiator AAPH (40 mM). Oxidation was carried out and monitored at 234 nm. DMSO under the same conditions was used as a negative control. Trolox was used as the appropriate standard (positive control). The results are given in Table S1 in the supplementary material.
We used the water-soluble 2, 2’-azobis(2-amidinopropane) hydrochloride (AAPH) to generate in vitro peroxyl radicals through spontaneous thermal decomposition, which resembles cellular lipid peroxidation due to the activity of the undertaken radicals. The anti-lipid peroxidation activities were compared to a well-known antioxidant, i.e., Trolox (Table S1 in the supplementary material). […] In general, the anti-lipid peroxidation ranged from 8-99%. Except for acids 11, 12, 17, 19, 21, 22, 24, 25, and 28, which present high antioxidant activities (on the high % level), the other cinnamic acids present low or medium activity.

[3] = molecular target: T2, soybean lipoxygenase (LOX-1) (Glycine max, UniProt P08170); test: Soybean lipoxygenase inhibition study; format: biochemical; settings: for LOX inhibition (%): % inhibition at 100 µM; for inhibition at 100 µM: read-out: LOX inhibition (%)
T2 construct: purchased Sigma Chemical, Co. (St Louis, MO, USA)
T2 sequence (P08170 1-839): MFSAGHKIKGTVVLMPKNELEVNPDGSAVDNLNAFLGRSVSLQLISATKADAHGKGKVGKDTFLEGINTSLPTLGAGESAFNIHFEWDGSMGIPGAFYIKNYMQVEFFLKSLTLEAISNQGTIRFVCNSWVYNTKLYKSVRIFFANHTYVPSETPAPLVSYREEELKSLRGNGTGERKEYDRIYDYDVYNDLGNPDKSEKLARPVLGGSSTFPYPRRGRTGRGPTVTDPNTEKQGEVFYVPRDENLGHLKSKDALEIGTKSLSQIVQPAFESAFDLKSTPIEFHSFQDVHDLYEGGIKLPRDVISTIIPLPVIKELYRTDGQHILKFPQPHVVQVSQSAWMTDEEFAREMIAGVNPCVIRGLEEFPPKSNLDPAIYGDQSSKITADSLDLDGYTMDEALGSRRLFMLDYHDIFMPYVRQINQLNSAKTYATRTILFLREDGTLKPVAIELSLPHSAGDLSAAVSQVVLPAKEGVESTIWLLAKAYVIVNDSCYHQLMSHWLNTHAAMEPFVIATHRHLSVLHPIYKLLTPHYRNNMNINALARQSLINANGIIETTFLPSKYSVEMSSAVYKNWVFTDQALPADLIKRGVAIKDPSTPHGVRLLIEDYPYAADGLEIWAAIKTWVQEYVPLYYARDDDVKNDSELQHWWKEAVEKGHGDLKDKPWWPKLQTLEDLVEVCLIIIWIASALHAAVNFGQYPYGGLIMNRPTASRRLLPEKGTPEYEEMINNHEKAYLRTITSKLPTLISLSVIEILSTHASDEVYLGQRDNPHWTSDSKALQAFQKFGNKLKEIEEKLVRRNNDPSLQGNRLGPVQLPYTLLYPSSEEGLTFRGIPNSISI
Method: Our group evaluated an in vitro study as reported previously. The tested hybrids were incubated at room temperature with sodium linoleate (100 µM) and 200 µL of enzyme solution (1/9 X 10^-4 w/v in saline). […] Different concentrations were used for the determination of IC50. A blank determination was used as a negative control.
Due to the limited work on sufficiently purified human ALOX-5 isoenzyme, most of the published research was performed on the soybean homolog. […] This study used the soybean isoenzyme LOX-1, which exerts maximal activity at pH 9.0 [72].

[4] = system: albumin; test: Albumin denaturation studies
Method: The synthesized compounds were evaluated for the inhibition of albumin denaturation. Test tubes containing 1 mL of albumin solution (1% w/v in phosphate buffer pH=7.4), buffer, and 20 μL of the tested compounds dissolved in DMSO are incubated at 37°C for 15 minutes (final concentration 100 µM). The incubation follows at 60°C for another 15 minutes to induce albumin denaturation. The samples are cooled to room temperature. Their absorbance was measured at 660 nm. DMSO was used as a blank solution and acetylsalicylic acid as a reference compound. The results are given in Table S1 in the supplementary material.
Protein denaturation has correlated well with the inflammatory response, leading to various inflammatory diseases. It is known that tissue injury during life might refer to the denaturation of cells' protein constituents or intercellular substances. […] Many anti-inflammatory drugs can inhibit the heat-coagulation of serum albumin [78]. Thus, the inhibition of albumin heat-coagulation activity of the designed molecules was examined in vitro [60] as a measure of their anti-inflammatory activity. The experimental results were compared to the standard drug, acetylsalicylic acid. […] The results are given in Table S1 in the supplementary material.

[5] = cited from earlier work
[6] = read-out: COX-2 inhibition (IC50)
[7] = read-out: LOX inhibition (IC50)

inhibition at 100 µM [1]: 19% | pIC50 [3, 7]: 5.07
Compound: COC(=O)CCC(NC(=O)C=Cc1ccc(O)c(O)c1)C(=O)OC (centres unmarked) [Compound 28c]
Albumin denaturation (%, at 100 µM) [4]: 31% | AAPH inhibition (%, at 100 µM) [2]: 87%

pIC50 [1, 6]: 4.00
Compound: COC(=O)CCCNC(=O)/C=C/c1ccc(O)c(O)c1 [Compound 28b]
Albumin denaturation (%, at 100 µM) [4]: 44% | AAPH inhibition (%, at 100 µM) [2]: 58%

pIC50 [1, 6]: 4.14 | LOX inhibition (%) [3]: 8%
Compound: COC(=O)CC[C@H](NC(=O)/C=C/c1ccc(F)cc1)C(=O)OC [Compound 27c]
AAPH inhibition (%, at 100 µM) [2]: 10%

inhibition at 100 µM [1]: 17% | pIC50 [3, 7]: 4.15
Compound: CCOC(=O)CNC(=O)/C=C/c1ccc(O)c(O)c1 [Compound 28a]
AAPH inhibition (%, at 100 µM) [2]: 47%

COX-2 inhibition (%) [1]: 6% | pIC50 [3, 7]: 4.00
Compound: COC(=O)CC[C@H](NC(=O)/C=C/c1ccc(OC(C)=O)cc1)C(=O)OC [Compound 30c]
AAPH inhibition (%, at 100 µM) [2]: 16%

COX-2 inhibition (%) [1]: 38%
Compound: CCOC(=O)CNC(=O)/C=C/c1ccc2c(c1)OC(C)(C)O2 [Compound 29a]
Albumin denaturation (%, at 100 µM) [4]: 25% | AAPH inhibition (%, at 100 µM) [2]: 80%

LOX inhibition (%) [3]: 10%
Compound: COC(=O)CCCNC(=O)/C=C/c1ccc(O)cc1 [Compound 25b]
AAPH inhibition (%, at 100 µM) [2]: 66%

The next lines start with the molecule.

Compound: CCOC(=O)CNC(=O)/C=C/c1cccs1 [Compound 21a]
pIC50 [1, 6]: 4.26 | AAPH inhibition (%, at 100 µM) [2]: 15% | LOX inhibition (%) [3]: 20%

Compound: CCOC(=O)CNC(=O)/C=C/c1ccc2c(c1)OCO2 [Compound 20a]
pIC50 [1, 6]: 4.12 | AAPH inhibition (%, at 100 µM) [2]: 70% | LOX inhibition (%) [3]: 6%

Compound: COc1ccc(OC)c(/C=C/C(=O)O)c1 [Compound 19]
inhibition at 100 µM [1]: 28% | AAPH inhibition (%, at 100 µM) [2]: 88% | pIC50 [3, 7]: 4.22

Compound: COC(=O)CC[C@H](NC(=O)/C=C/c1cccc2ccccc12)C(=O)OC [Compound 17c]
pIC50 [1, 6]: 4.21 | AAPH inhibition (%, at 100 µM) [2]: 57% | pIC50 [3, 7]: 4.17

Compound: O=C(O)/C=C/c1ccc(OCc2ccc(Br)cc2)cc1 [Compound 11]
inhibition at 100 µM [1]: 17% | pIC50 [3]: 4.00 | AAPH inhibition (%, at 100 µM) [5]: 84%

Compound: O=C(O)/C=C/c1cccc(Oc2ccccc2)c1 [Compound 12]
inhibition at 100 µM [1]: 39% | AAPH inhibition (%, at 100 µM) [5]: 84%

Compound: COC(=O)CC[C@H](NC(=O)/C=C/c1ccc(O)c(OC)c1)C(=O)OC [Compound 24c]
COX-2 inhibition (%) [1]: 9% | AAPH inhibition (%, at 100 µM) [2]: 12% | pIC50 [3, 7]: 4.12

Compound: CC(=O)Oc1ccccc1C(=O)O [Aspirin, acetylsalicylic acid, reference compound]
Albumin denaturation (%, at 100 µM) [4]: 31.2%

Compound: COC(=O)CCCNC(=O)/C=C/c1cccs1 [Compound 21b]
COX-2 inhibition (%) [1]: 38% | AAPH inhibition (%, at 100 µM) [2]: 73% | LOX inhibition (%) [3]: 0%

Compound: O=C(O)/C=C/c1ccc(C(F)(F)F)cc1 [Compound 13]
inhibition at 100 µM [1]: 32% | AAPH inhibition (%, at 100 µM) [2]: 37% | inhibition at 100 µM [3]: 42%

Compound: O=C(O)/C=C/c1cccs1 [Compound 21]
AAPH inhibition (%, at 100 µM) [5]: 60%

Compound: O=C(O)/C=C/c1ccc(O)cc1 [Compound 25, p-coumaric acid]
pIC50 [1, 6]: 4.21 | AAPH inhibition (%, at 100 µM) [2]: 76% | pIC50 [3]: 5.00

Compound: COc1ccc(/C=C/C(=O)O)cc1OC [Compound 18]
inhibition at 100 µM [1]: 19% | AAPH inhibition (%, at 100 µM) [5]: 86%

Compound: N#Cc1ccc(/C=C/C(=O)O)cc1 [Compound 26]
pIC50 [1]: 4.19 | inhibition at 100 µM [3]: 27% | AAPH inhibition (%, at 100 µM) [5]: 20%

Compound: CCOC(=O)CNC(=O)/C=C/c1ccccc1 [Compound 22a]
pIC50 [1, 6]: 5.30 | AAPH inhibition (%, at 100 µM) [2]: 5% | LOX inhibition (%) [3]: 0%

Compound: CCOC(=O)CNC(=O)/C=C/c1ccc(OC)c(OC)c1 [Compound 18a]
COX-2 inhibition (%) [1]: 14% | AAPH inhibition (%, at 100 µM) [2]: 99% | pIC50 [3, 7]: 4.20

Compound: O=C(O)/C=C/c1ccccc1 [Compound 22, cinnamic acid]
inhibition at 100 µM [1]: 4% | AAPH inhibition (%, at 100 µM) [5]: 78%

Compound: COC(=O)CC[C@H](NC(=O)/C=C/C=C/c1ccccc1)C(=O)OC [Compound 23c]
COX-2 inhibition (%) [1]: 47% | AAPH inhibition (%, at 100 µM) [2]: 25% | pIC50 [3, 7]: 4.12

Compound: COC(=O)CC[C@H](NC(=O)/C=C/c1ccc2c(c1)OC(C)(C)O2)C(=O)OC [Compound 29c]
Albumin denaturation (%, at 100 µM) [4]: 75% | AAPH inhibition (%, at 100 µM) [2]: 27%

Compound: CCOC(=O)CNC(=O)/C=C/c1cc(OC)ccc1OC [Compound 19a]
AAPH inhibition (%, at 100 µM) [2]: 89% | LOX inhibition (%) [3]: 28%

Compound: COC(=O)CC[C@H](NC(=O)/C=C/c1ccc(OC)c(OC)c1)C(=O)OC [Compound 18c]
AAPH inhibition (%, at 100 µM) [2]: 74% | pIC50 [3, 7]: 4.24

Compound: CCOC(=O)CNC(=O)/C=C/c1cccc(Br)c1 [Compound 15a]
AAPH inhibition (%, at 100 µM) [2]: 26% | pIC50 [3, 7]: 4.24

Compound: CCOC(=O)CNC(=O)/C=C/c1cccc(Oc2ccccc2)c1 [Compound 12a]
pIC50 [1, 6]: 4.26 | AAPH inhibition (%, at 100 µM) [2]: 48% | LOX inhibition (%) [3]: 36%

Compound: CCOC(=O)CNC(=O)/C=C/c1ccc(O)c(OC)c1 [Compound 24a]
AAPH inhibition (%, at 100 µM) [2]: 82% | pIC50 [3, 7]: 4.00

Compound: COC(=O)CC[C@H](NC(=O)/C=C/c1cc(OC)ccc1OC)C(=O)OC [Compound 19c]
AAPH inhibition (%, at 100 µM) [2]: 64% | LOX inhibition (%) [3]: 7%
